Source: patent US7030133B2, “Inhibitors of formation of advanced glycation endproducts (AGEs)” (City of Hope, priority 1999, dated 2006)

Experiments:
[1] = system: hemoglobin (HbAlC formation); test: Hemoglobin-δ-Gluconolactone (δ-Glu) assay (early stage glycation, HbAlC formation in whole blood); format: cell-based, human; details: 1 millimole/L compound, 50 millimoles/L δ-Glu, whole blood from normal volunteers, 16 hours at 37° C.
Method: The δ-Glu assay is a specific method for investigation of inhibitors of the early stage of glycation. Evaluation of early glycation products (Amadori) formation on hemoglobin (HbAlC) is performed by incubating red blood cells with an oxidized form of glucose in the presence and the absence of the inhibitor compound followed by determination of HbAlC in the test versus the control (Rahbar and Nadler., 1999). […] By contrast, glucose requires weeks for an equivalent reaction to occur. We have used this finding to devise an assay method to measure early stage glycation of hemoglobin (Amadori product) and an assay to evaluate the ability of an inhibitor to inhibit HbAlC formation. Briefly, fresh blood was drawn in potassium-EDTA and prepared for incubation within 30 minutes of collection by mixing 200 μL of blood with 40 μL of either phosphate buffered-saline (PBS), pH 7.4, alone, PBS containing 50 millimoles/L δ-Glu (Sigma), or PBS containing 50 millimoles/L δ-Glu plus 1 millimole/L inhibitor. After incubation for 16 hours at 37° C., the percentage of glycated hemoglobin present was determined. The percentage of glycated Hb (HbAlC) was determined using a dedicated ion-exchange HPLC system (BIORAD DIAMAT). Blood samples were analyzed in triplicate. The % inhibition of HbAlC formation by the compound was calculated according to the following formula: ((B−C)/(B−A))×100 where A is HbAlC concentration in the baseline control tube not treated with δ-Glu, B is the HbAlC concentration in blood incubated with δ-Glu, C is the HbAlC content of the test tube treated both with δ-Glu and the inhibitor compound.
The amount of (HbAlC) formation using δ-Glu treated whole blood from normal volunteers using 1 millimole/L of the compounds was calculated. Various inhibitors (compounds LR103-LR115) show different levels of HbAlC depending on their inhibitory potencies.

[2] = system: BSA; test: BSA-Glucose assay (glucose-mediated development of fluorescence of BSA); format: biochemical; details: BSA 50 mg/mL, 800 mM glucose, 7 days at 37° C., fluorescence 330/410 nm; compound concentration not stated
Method: This test is used to evaluate the ability of the inhibitors to inhibit glucose-mediated development of fluorescence of BSA (Ikeda et al., 1996). Triplicate samples of BSA (fraction V, essentially fatty acid free, low endotoxin) from Sigma 50 mg/mL and 800 mM glucose (144 mg/mL) in […] phosphate buffer pH 7.4 containing NaN3 0.2 g/L was incubated under aseptic conditions at 37° C. for 7 days in the presence or absence of various concentrations of the compounds. After 7 days of incubation each sample was examined for the development of specific fluorescence (excitation, 330 nm; emission, 410 nm). The % inhibition of AGE formation in the test sample versus control was calculated for each inhibitor compound. Aminoguanidine (50 mM) was used as a positive control.
This method assays for inhibitors of late glycation and AGE formation (post-Amadori).

[3] = N-Acetyl-Glycyl-Lysine Methyl Ester (G.K. peptide)-Ribose assay; format: biochemical; details: 24 hours at 37° C.; for Percent Inhibition in the G.K.-Ribose Assay: 1 millimole/L compound, fluorescence 330/415 nm
Method: Evaluation of the late glycation products (AGEs), and AGE-inhibition by the new inhibitor compounds was tested by incubation of G.K. peptide in ribose in the presence or the absence of the agent, followed by determination of chromophores generated in the course of glycation and AGE formation through determination of their specific fluorescence. The Nagaraj et al. (1996) method used to evaluate the ability of the compounds of the present invention to inhibit the crosslinking of N-acetylglycyl-lysine methyl ester in the presence of ribose was as follows: Stock Solutions: • 0.5 M sodium phosphate buffer pH 7.4 containing NaN3 0.2 g/L • GK peptide (Sigma) 80 mg/mL in 0.5 M sodium phosphate buffer pH 7.4 • Ribose 800 mM (120 mg/mL) in 0.5 M phosphate buffer Triplicate samples of equal volumes (0.1 mL) of the 3 stock solutions were mixed together, filtered through a 0.2 micron filter (Coming) and incubated under aseptic conditions for 24 hours at 37° C. The inhibitor compounds were added to a final concentration of 1 millimole/L. At the end of the incubation period, samples were analyzed for their specific fluorescence (excitation, 330 nm; emission, 415 nm). The % inhibition by different concentrations of inhibitor was calculated as described above. Aminoguanidine was used at 50 mM as a positive control.

[4] = Inhibition of copper-catalyzed autooxidation of ascorbic acid (copper-chelating activity); format: physicochemical; details: read-out: IC50, concentration that inhibited the rate of ascorbic acid oxidation by 50% (copper-chelating activity), FIGS. 3 and 4
Method: This assay was performed according to Price et al. (2001). The kinetics of oxidation of ascorbic acid (AA) at the rate of decrease in absorbance at 265 nm was measured. For studies with AGE inhibitors, the ascorbic acid was added to initiate the reaction. Aliquots were removed at 0, 15, 30, 45, and 60 minutes and transferred to autoinjector vials containing DPTA. Samples were analyzed by reverse phase HPLC, (Waters 2690 Millenium 32 Separator Module), equipped with an auto-injector using Xterra™ RP18 column (250×4.6 mm, 5 μm). Solvents and gradient were all used as described in Price et al. (2001). The concentration of each inhibitor compound that inhibited the rate of AA oxidation by 50% was calculated using Prism (Graph Pad-San Diego).

Compound | Percent Inhibition of HbAlC formation in the δ-Glu Assay [1] [%] | Percent Inhibition in the BSA-Glucose Assay [2] [%] | Percent Inhibition in the G.K.-Ribose Assay [3] [%] | Percent Inhibition in the G.K.-Ribose Assay (positive control) ([3]; Aminoguanidine 50 mM) [%] | IC50 [4] [µM]
4,4′-bis [(methyleneoxyethyleneamino)phenoxy]isobutyric acid [LR112] | 43.2 | 44.7 | 21 |  | 
4-[(3,5-dichlorophenyureido)phenoxyisobutyrylamido]-2-hydroxybenzene-4-carboxylic acid [LR114] | 45.4 | 22.7 | 7.2 |  | 
N=C(N)NN [AG, aminoguanidine, reference compound] |  |  |  | 67 | 
CC(C)(Oc1ccc(N(Cc2ccc(Cl)cc2)C(=O)Nc2ccc(Cl)c(Cl)c2)cc1)C(=O)O [LR103, 1-[(4-chlorobenzyl)-3-(3,4-dichlorophenylureido)]-4-phenoxyisobutyric acid] | 43.2 | 4 | 14 |  | ~75
CC(C)(Oc1ccc(NC(=O)Nc2ccc(F)c(Cl)c2)cc1)C(=O)Nc1ccccc1C(=O)O [LR104, 4-(4-fluoro-3-chlorophenylurido)phenoxyisobutyrylamidophenyl-2-carboxylic acid] | 47.7 | 18.4 | 0 |  | ~100
CC(C)(Oc1ccc(N(Cc2c(F)cccc2Cl)C(=O)Nc2ccc(Cl)c(Cl)c2)cc1)C(=O)O [LR105, 1[(2-fluoro-6-chlorobenzyl)-3-(3,4-dichlorophenyureido)]-4-phenoxyisobutyric acid] | 38.6 | 21.5 | 12 |  | 
CC(C)(Oc1ccc(NCc2ccc(Cl)cc2)cc1)C(=O)O [LR106, 4-(4-chlorobenzylaminophenoxyisobutyric)acid] | 40.9 | 14.4 | 10.5 |  | 
CC(C)(Oc1ccc(NC(=O)Nc2ccc(NC(=O)Nc3ccc(OC(C)(C)C(=O)O)cc3)c(Cl)c2)cc1)C(=O)O [LR107, 2-chlorobenzene-1,4-bis(4-ureidophenoxyisobutyric acid)] | 43.2 | 28.7 | 19.5 |  | 
CC(C)(Oc1ccc(N(Cc2ccc(Cl)cc2)C(=O)Nc2cc(Cl)cc(Cl)c2)cc1)C(=O)O [LR108, 1-[(4-chlorobenzyl)-3-(3,5-dichlorophenyureido)]-4-phenoxyisobutyric acid] | 2.0 | 31.1 | 19.7 |  | 
CC(C)(Oc1ccc(N(Cc2c(F)cccc2Cl)C(=O)Nc2c(F)cccc2Cl)cc1)C(=O)O [LR109, 1-[(2-fluoro-6-chlorobenzyl)-3-(2-fluoro-6-chlorophenylureido)]-4-phenoxyisobutyric acid] | 56.8 | 34.6 | 9.5 |  | 
CC(C)(Oc1ccc(NC(=O)c2c3c(nc4ccccc24)CCCC3)cc1)C(=O)O [LR110, 4-(1,2,3,4-tetrahydroacridine-9-carboxamidophenoxyisobutyric)acid] | 38.6 | 28.5 | 11 |  | 
O=C(O)COc1cccc2cccnc12 [LR111, 8-quinolinoxy acetic acid] | 38.6 | 21.6 | 9.7 |  | 
CC(=O)N[C@@H](Cc1c[nH]cn1)C(=O)Oc1cccc2cccnc12 [LR113, L-8-quinolinolyl(acetylhistidine)] | 36.3 | 21.5 | 11 |  | 
CC(C)(Oc1ccc(NC(=O)Nc2cc(Cl)cc(Cl)c2)cc1)C(=O)N[C@@H](Cc1ccccc1)C(=O)O [LR115, L, α-4-[(3,5-dichlorophenyureido)phenoxyisobutyrylamido]phenylalanine] | 47.7 | 22.3 | 0 |  | 
